The values that follow come from patent US6337317B1, “Antimicrobial peptides and methods of use thereof” (priority 2000, dated 2002).

One series concerns Human Red Blood Cells. Nature of the series: Hemolytic assay. It is filed as cell-based. On the procedure: The toxicity of invention peptides can be assessed using a hemolytic assay in which the ability of the peptides to lyse human red blood cells is assessed (Zhang et al. (1999) Biochemistry 38:8102-8111; and Examples section).
Hemolytic activity of invention peptides was tested against human red blood cells. Freshly collected human blood treated with heparin was centrifuged to remove the buffy coat, and the erythrocytes thereby obtained were washed three times in saline (0.85% NaCl). Serial dilutions of the peptides in saline were prepared in round-bottomed microtiter plates using total volumes of 100 μl. Red blood cells were diluted with saline to 1/25 of a packed cell volume, and 50 μl of cells were added to each well. Plates, while rocking, were incubated at 37° C., and the concentration of the peptide required for lysis after 4 h was taken as the minimal hemolytic concentration.

For series [1], the system named is E. coli 0111:B4 LPS induced production of TNF-α in RAW macrophages. Nature of the series: Reduction of LPS-induced TNF-α in RAW 264.7 macrophages (ELISA). It is filed as cell-based, murine. Particulars: peptide 20 μg/ml; LPS 100 ng/ml; RAW 264.7; 6 hours. On the procedure: (§1) The ability of invention peptides to reduce LPS-induced tumor necrosis factor (TNF) production was tested in an in vitro assay. The murine macrophage cell line RAW 264.7 was obtained from American Type Culture Collection (Manassas, Va.) and grown in DMEM medium supplemented with 10% fetal calf serum. The cells were plated at a density of 10^6 cells/well in 24 well plates, incubated overnight, then washed with fresh medium. E. coli 0111 :B4 (100 ng/ml) was added at time 0 to RAW macrophages. Invention peptides […]/m were added at time 0, 30 and 60 minutes and the cells were stimulated for 6 hours. Levels of TNF and interleukin-6 (IL-6) were measured after 6 hours.

The subject of series [2] is E. coli 0111:B4 LPS induced production of IL-6 in RAW macrophages. Nature of the series: Reduction of LPS-induced IL-6 in RAW 264.7 macrophages (ELISA). It is filed as cell-based, murine. As to conditions: peptide 20 μg/ml; LPS 100 ng/ml; RAW 264.7; 6 hours. On the procedure: as §1
A further series has as its system P. aeruginosa M2. Nature of the series: P. aeruginosa infection in neutropenic mouse model. It is filed as in vivo. Particulars: neutropenic CD-1 mice. On the procedure: Invention peptides were assayed for their ability to protect against P. aeruginosa infection in a neutropenic mouse mode. Female CD-1 mice, made neutropenic by three injections of cyclophosphamide (see Gough et al., (1996) Infect. Immun. 64:4922-4927) were injected intraperitoneally with a 100% lethal dose of P. aeruginosa M2 (approximately 200 organisms). Thirty minutes later, mice were injected intraperitoneally with invention peptides (200 μg/100 μl) Survival was assessed 24 to 72 hours later.

Series [3] in a line: LPS-induced endotoxemia in galactosamine-sensitized mice. It is filed as in vivo. As to conditions: 200 μg peptide intraperitoneally, groups of 10 mice, up to 24 h. On the procedure: Bacterial endotoxin (LPS) is highly toxic and can cause high mortality in both humans and animals when released during Gram-negative bacterial infection. Galactosamine-treated mice exposed to moderate does of endotoxin typically die from endotoxic shock within 17 hours following exposure. Invention peptides can be tested for their ability to protect mice against endotoxin-induced death (see Examples section). The anti-endotoxic activity of invention peptides also can be tested in an in vitro assay using a macrophage cell line (Gough et al. (1996) Infect. Immun. 64:4922-4927; and Examples section).
The ability of invention peptides to protect against LPS-induced endotoxemia was assessed in vivo. Mice (8-10 weeks old) were injected intraperitoneally with […] D-galactosamine (Dgal) to sensitize them to LPS according to the method of Galanos (Galanos et al. (1979) Proc. Natl. Acad. Sci., USA, 76:5939-5943). Endotoxic shock was induces by intraperitoneal injections of 3 μg/mL E. coli 111 :B4 LPS in phosphate-buffered saline (PBS). Invention peptides (200 μg/100 μl sterile water) were injected intraperitoneally at a separate site within 10 min of LPS injection, and survival was monitored up to 24 h following injection.

Series [4] can be described thus: Dansyl polymyxin B displacement assay (binding affinity for LPS). More on the design: species or system Escherichia coli. On the procedure:
To determine whether invention peptides are able to interact with the LPS of Gram-negative bacterial outer membrane, the binding affinity of peptide for LPS was determined using a dansyl polymyxin B displacement assay (Moore et al. (1986) Antimicrobial Agents Chemother. 29:496-500). The assay uses dansyl polymyxin, a cationic probe that is highly fluorescent only when bound and LPS isolated from E. coli. UB1005. […] Maximal displacement of LPS was expressed as a percentage where 100% displacement of dansyl polymyxin B was taken as that observed with polymyxin B.

The subject of another series is E. coli DC2. The series can be described thus: Cytoplasmic membrane depolarization, diSC35 assay. It is filed as cell-based, Escherichia coli. Particulars: 0.25 μg/ml peptide. On the procedure: The arrowhead indicates the time at which 0.25 μg/ml peptide was added. PV5: SEQ ID NO:11; PV7: SEQ ID NO:4; and PV8: SEQ ID NO:3.
The cytoplasmic membrane depolarization activity of the peptides was determined (Wu and Hancock (1999) J. Biol. Chem. 274:29-35) using the membrane potential sensitive dye 3,3-dipropylthiacarbocyanine diSC35 (28) and E. coli DC2. Bacterial cells in mid-log phase were centrifuged, washed in 5 mM HEPES, pH 7.8, and resuspended in the same buffer to an OD600 of 0.05. A stock solution of diSC35 was added to a final concentration of 0.4 μM and quenching was allowed to occur at room temperature for 20-30 min. Then KCl was added to the cell suspension to a final concentration of 100 mM to equilibrate the cytoplasmic and external K^+ concentrations. A 2-mL cell suspension was placed in a 1 cm cuvette and the desired concentration of tested peptide was added. Changes in fluorescence due to the disruption of the membrane potential in the cytoplasmic membrane were continuously recorded using a Perkin-Elmer model 650-10S spectrofluorimeter at an excitation wavelength of 622 nm and an emission wavelength of 670 nm. The concentration of peptide leading to a 50% of maximal increase in NPN uptake was recorded as the P50.

Where a SMILES comes first, the peptide text is derived from it.

Consider `CC(C)[C@@H]1NC(=O)[C@H](CCCNC(=N)N)NC(=O)[C@H](Cc2ccccc2)NC(=O)[C@@H](NC(=O)[C@H](Cc2c[nH]c3ccccc23)NC(=O)[C@H](CCCNC(=N)N)NC(=O)[C@@H](N)CCCNC(=N)N)CSSC[C@@H](C(=O)N[C@@H](CCCNC(=N)N)C(N)=O)NC(=O)[C@H](CCCCN)NC(=O)[C@H](CCCNC(=N)N)NC(=O)[C@H](Cc2ccc(O)cc2)NC(=O)[C@@H]2CSSC[C@H](NC1=O)C(=O)N[C@@H](Cc1ccc(O)cc1)C(=O)N[C@@H](CCCNC(=N)N)C(=O)NCC(=O)N[C@@H](Cc1ccccc1)C(=O)N2` [Polyphemusin I] (HELM PEPTIDE1{R.R.W.C.F.R.V.C.Y.R.G.F.C.Y.R.K.C.R.[am]}$PEPTIDE1,PEPTIDE1,4:R3-17:R3|PEPTIDE1,PEPTIDE1,8:R3-13:R3$$$V2.0; N-terminus and C-terminus assumed), for which the “minimal hemolytic concentration (printed under MIC head)” value in the series on Human Red Blood Cells (Human Red Blood Cells, lysis after 4 h at 37° C.) is 21.3 µg/mL. Moreover, the “hemolytic activity” value in the series on Human Red Blood Cells (red blood cells) was “show hemolytic activity”. The “Inhibition of TNF-α (%)” value in series [1] is reported as 83 ± 6%. In addition, the “Inhibition of IL-6 (%)” value in series [2] was 84 ± 3%. For the same compound, the “Mean Time to Death” value in the series on P. aeruginosa M2 (200 μg peptide intraperitoneally 30 min after infection) was 52 h. The “Survival (%), P. aeruginosa infection” value with P. aeruginosa M2 (200 μg peptide intraperitoneally, groups of 5 mice, assessed 24 to 72 hours) was 20%. Moreover, the “Survival (%), LPS-Endotoxemia” value in series [3] is reported as 10%. In series [4] (maximal displacement, 100% = that observed with polymyxin B), this compound displayed an Imax of 85%. In addition, the IC50 in series [4] (peptide concentration reducing bound dansyl polymyxin B (10 μM) by 50% of maximal displacement, read-out: I50) turned out to be 4.8 µM. For the same compound, the “time to dissipation of the cytoplasmic membrane potential” value in the series with E. coli DC2 is given as ≤ 5 min.
